From ChEMBL document CHEMBL4007445, “Design, synthesis, and biological evaluation of imidazo[1,2-b]pyridazine derivatives as mTOR inhibitors” (Eur J Med Chem, 2017)

Legend:
A549 [1] = assay: Growth inhibition of human A549 cells at 20 uM after 72 hrs by SRB assay relative to control; type: functional; conditions: A549, 72 h, read-out: GI
MCF7 [2] = assay: Growth inhibition of human MCF7 cells at 20 uM after 72 hrs by SRB assay relative to control; type: functional; conditions: MCF7, 72 h, read-out: GI
[3] = Growth inhibition of human U87 cells at 20 uM after 72 hrs by SRB assay relative to control; type: functional, U-87MG ATCC; conditions: U-87 MG, read-out: GI
A-375 [4] = assay: Growth inhibition of human A375 cells at 20 uM after 72 hrs by SRB assay relative to control; type: functional; conditions: A-375, 72 h, read-out: GI
HeLa = assay: Growth inhibition of human HeLa cells at 20 uM after 72 hrs by SRB assay relative to control; type: functional; conditions: read-out: GI
A549 [5] = assay: Antiproliferative activity against human A549 cells after 72 hrs by SRB assay; type: functional, cell-based; conditions: A549, 72 h
A-375 [6] = assay: Antiproliferative activity against human A375 cells after 72 hrs by SRB assay; type: functional, cell-based; conditions: A-375, 72 h
MCF7 [7] = assay: Antiproliferative activity against human MCF7 cells after 72 hrs by SRB assay; type: functional, cell-based; conditions: MCF7, 72 h
[8] = Antiproliferative activity against human U87 cells after 72 hrs by SRB assay; type: functional, cell-based, U-87MG ATCC; conditions: U-87 MG
NCI-H460 = assay: Antiproliferative activity against human NCI-H460 cells after 72 hrs by SRB assay; type: functional, cell-based; conditions: NCI-H460, 72 h
HEK293 = assay: Antiproliferative activity against HEK293 cells after 72 hrs by SRB assay; type: cell-based; conditions: Homo sapiens, HEK293, 72 h
[9] = Solubility of the compound; type: physicochemical
[10] = target: PI3-kinase p110-alpha/p85-alpha (Homo sapiens) (UniProt P27986+P42336); assay: Inhibition of human PI3K p110alpha/p85alpha at 10 uM using phosphatidylinositol 4,5-bisphosphate as substrate after 30 mins by HTRF assay relative to control; type: protein-complex assay
[11] = target: PI3K p110 beta/p85 alpha (Homo sapiens) (UniProt P27986+P42338); assay: Inhibition of human PI3K p110beta/p85alpha at 10 uM using phosphatidylinositol 4,5-bisphosphate as substrate after 30 mins by HTRF assay relative to control; type: protein-complex assay
Chain of PI3K p110 beta/p85 alpha (Homo sapiens) (P27986 2-724 limits assumed): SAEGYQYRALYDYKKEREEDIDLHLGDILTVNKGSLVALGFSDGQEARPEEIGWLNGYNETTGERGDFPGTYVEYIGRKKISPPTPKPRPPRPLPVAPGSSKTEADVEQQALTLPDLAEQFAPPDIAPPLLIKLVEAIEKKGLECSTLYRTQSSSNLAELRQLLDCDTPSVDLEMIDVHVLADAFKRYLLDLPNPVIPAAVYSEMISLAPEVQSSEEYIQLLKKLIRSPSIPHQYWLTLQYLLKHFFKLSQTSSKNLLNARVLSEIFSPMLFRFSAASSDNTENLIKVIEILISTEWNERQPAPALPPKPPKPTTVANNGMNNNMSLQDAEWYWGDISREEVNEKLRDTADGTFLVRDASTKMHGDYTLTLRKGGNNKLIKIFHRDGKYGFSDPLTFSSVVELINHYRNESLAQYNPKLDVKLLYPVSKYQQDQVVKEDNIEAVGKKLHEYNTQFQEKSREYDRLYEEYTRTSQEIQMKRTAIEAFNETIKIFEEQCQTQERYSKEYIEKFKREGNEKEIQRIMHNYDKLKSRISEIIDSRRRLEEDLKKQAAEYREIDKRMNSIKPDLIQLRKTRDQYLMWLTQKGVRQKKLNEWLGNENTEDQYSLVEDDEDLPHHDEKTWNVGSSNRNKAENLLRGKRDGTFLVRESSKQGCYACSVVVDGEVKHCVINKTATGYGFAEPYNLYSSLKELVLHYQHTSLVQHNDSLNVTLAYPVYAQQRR
Chain of PI3K p110 beta/p85 alpha (Homo sapiens) (P42338 whole entry partner, canonical isoform): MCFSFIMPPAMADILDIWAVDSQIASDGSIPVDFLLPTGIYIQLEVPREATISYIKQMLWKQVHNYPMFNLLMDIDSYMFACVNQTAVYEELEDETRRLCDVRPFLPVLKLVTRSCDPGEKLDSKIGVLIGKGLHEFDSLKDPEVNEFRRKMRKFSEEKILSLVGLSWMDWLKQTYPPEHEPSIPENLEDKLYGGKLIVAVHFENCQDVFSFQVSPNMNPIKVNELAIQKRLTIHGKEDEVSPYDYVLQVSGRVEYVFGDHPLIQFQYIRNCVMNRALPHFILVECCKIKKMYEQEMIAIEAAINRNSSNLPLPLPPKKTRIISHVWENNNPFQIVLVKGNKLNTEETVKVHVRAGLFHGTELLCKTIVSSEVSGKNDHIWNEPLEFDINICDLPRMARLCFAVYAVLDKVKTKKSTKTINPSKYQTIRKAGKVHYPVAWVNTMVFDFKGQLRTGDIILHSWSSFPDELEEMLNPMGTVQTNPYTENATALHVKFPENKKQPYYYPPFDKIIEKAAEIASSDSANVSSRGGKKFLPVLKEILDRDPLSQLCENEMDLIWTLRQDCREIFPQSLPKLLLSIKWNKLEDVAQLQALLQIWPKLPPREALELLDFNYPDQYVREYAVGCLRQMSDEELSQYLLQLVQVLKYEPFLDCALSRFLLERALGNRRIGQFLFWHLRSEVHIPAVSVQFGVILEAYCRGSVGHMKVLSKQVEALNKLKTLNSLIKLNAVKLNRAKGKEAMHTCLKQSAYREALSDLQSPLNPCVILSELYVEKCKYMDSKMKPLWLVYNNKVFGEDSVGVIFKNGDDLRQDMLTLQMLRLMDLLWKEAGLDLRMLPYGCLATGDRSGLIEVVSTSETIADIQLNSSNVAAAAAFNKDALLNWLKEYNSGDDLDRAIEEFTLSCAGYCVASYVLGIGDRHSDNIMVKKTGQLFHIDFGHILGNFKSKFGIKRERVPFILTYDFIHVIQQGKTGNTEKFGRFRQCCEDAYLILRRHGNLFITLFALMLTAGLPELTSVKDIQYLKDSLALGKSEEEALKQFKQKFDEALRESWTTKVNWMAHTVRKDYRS

[12] = target: Phosphatidylinositol 4,5-bisphosphate 3-kinase catalytic subunit gamma isoform (Homo sapiens) (UniProt P48736); assay: Inhibition of human PI3K p120gamma at 10 uM using phosphatidylinositol 4,5-bisphosphate as substrate after 30 mins by HTRF assay relative to control
Chain of Phosphatidylinositol 4,5-bisphosphate 3-kinase catalytic subunit gamma isoform (Homo sapiens) (P48736 whole entry, looked up, canonical isoform): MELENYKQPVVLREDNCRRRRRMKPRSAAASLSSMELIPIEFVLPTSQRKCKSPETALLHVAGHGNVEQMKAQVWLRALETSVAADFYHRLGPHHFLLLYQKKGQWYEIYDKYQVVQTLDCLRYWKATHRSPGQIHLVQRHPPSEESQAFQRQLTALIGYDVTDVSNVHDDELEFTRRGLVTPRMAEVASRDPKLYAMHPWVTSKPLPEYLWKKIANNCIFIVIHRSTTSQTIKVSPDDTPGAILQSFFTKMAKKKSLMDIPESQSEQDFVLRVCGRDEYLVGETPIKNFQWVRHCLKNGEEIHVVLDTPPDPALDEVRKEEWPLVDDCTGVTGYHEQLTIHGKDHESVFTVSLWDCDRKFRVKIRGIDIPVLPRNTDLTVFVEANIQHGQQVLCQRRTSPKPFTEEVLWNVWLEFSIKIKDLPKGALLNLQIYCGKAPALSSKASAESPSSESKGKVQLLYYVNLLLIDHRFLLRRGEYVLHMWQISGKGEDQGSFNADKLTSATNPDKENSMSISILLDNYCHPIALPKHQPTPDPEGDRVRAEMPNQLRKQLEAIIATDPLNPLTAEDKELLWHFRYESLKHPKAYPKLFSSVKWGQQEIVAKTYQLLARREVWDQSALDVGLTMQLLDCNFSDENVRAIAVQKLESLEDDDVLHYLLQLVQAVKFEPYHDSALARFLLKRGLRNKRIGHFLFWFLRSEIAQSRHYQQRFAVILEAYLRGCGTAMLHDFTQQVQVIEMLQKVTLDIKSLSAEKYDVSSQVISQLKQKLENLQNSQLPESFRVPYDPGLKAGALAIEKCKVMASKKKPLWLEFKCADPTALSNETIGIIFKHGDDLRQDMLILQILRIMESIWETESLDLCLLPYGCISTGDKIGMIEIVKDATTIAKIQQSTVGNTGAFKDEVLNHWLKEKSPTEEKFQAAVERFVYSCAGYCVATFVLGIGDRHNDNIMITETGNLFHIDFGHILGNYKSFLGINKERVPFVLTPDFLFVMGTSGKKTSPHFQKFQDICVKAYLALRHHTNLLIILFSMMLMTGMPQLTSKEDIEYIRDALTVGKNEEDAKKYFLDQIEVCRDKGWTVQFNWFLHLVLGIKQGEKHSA

[13] = target: PI3-kinase p110-delta/p85-alpha (Homo sapiens) (UniProt P27986+O00329); assay: Inhibition of human PI3K p110delta/p85alpha at 10 uM using phosphatidylinositol 4,5-bisphosphate as substrate after 30 mins by HTRF assay relative to control; type: protein-complex assay
[14] = target: PI3-kinase p110-alpha/p85-alpha (Homo sapiens, UniProt P42336); assay: Inhibition of human PI3K p110alpha/p85alpha using phosphatidylinositol 4,5-bisphosphate as substrate after 30 mins by HTRF assay; type: protein-complex assay
Chain of PI3-kinase p110-alpha/p85-alpha (P27986 whole entry): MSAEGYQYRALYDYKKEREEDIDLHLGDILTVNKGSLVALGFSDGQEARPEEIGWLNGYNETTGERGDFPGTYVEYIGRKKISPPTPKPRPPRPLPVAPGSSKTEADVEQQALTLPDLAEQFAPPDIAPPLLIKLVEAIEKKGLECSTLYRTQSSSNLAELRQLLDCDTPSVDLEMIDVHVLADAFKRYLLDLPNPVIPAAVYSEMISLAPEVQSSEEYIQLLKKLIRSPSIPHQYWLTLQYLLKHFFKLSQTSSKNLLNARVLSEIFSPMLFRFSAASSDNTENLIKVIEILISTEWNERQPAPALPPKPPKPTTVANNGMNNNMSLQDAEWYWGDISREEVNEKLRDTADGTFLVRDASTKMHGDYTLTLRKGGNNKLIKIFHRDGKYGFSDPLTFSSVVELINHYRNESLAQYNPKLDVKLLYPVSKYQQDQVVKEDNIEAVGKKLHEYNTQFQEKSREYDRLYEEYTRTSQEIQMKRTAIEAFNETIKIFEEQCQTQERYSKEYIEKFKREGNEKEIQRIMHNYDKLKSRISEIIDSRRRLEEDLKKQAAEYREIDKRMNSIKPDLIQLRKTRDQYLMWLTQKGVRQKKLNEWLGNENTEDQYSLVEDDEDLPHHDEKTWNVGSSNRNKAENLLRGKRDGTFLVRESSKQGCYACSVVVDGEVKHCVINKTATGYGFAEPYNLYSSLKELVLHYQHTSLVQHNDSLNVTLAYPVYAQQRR
Chain of PI3-kinase p110-alpha/p85-alpha (P42336 whole entry): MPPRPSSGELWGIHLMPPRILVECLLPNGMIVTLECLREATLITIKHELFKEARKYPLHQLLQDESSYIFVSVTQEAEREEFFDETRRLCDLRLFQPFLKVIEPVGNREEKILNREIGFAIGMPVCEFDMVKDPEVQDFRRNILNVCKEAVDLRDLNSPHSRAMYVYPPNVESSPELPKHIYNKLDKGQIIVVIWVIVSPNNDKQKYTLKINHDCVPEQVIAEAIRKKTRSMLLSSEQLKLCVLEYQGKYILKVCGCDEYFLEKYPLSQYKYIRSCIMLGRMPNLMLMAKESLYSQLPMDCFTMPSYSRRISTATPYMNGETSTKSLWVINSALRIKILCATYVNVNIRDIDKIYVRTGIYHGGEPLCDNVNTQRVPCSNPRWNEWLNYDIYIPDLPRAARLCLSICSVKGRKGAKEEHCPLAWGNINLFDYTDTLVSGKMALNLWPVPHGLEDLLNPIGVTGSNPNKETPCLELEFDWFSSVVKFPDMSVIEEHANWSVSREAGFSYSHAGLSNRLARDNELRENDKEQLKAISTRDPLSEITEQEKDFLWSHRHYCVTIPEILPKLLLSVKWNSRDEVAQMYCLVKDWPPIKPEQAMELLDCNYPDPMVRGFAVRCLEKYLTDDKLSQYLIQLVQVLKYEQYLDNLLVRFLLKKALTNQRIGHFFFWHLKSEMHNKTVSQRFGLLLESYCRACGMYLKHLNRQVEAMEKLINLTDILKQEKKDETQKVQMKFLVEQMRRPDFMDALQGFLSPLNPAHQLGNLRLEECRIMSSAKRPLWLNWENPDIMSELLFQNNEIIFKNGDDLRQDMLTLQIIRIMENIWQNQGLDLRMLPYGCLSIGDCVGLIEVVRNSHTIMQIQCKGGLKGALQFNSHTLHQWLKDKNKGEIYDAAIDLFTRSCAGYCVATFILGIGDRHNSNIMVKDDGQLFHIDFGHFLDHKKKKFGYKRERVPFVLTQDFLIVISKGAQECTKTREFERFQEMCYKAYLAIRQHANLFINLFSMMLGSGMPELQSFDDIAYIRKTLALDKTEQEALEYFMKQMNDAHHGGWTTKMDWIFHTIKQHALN

IC50 (A549 [5]) [µM]	IC50 (A-375 [6]) [µM]	IC50 (MCF7 [7]) [µM]	IC50 (NCI-H460) [µM]	solubility [9]	inhibition [10] [%]	inhibition [11] [%]	inhibition [12] [%]	inhibition [13] [%]	IC50 [14] [µM]	Structure (SMILES)	inhibition of growth at 20 µM (A549 [1]) [%]	inhibition of growth at 20 µM (MCF7 [2]) [%]	inhibition of growth at 20 µM [3] [%]	inhibition of growth at 20 µM (A-375 [4]) [%]	inhibition of growth at 20 µM (HeLa) [%]	IC50 [8] [µM]	IC50 (HEK293) [µM]
–	–	–	–	–	–	–	–	–	–	C[C@H]1COCCN1c1cc(-c2cnc(N)nc2)nn2c(C3CCN(S(C)(=O)=O)CC3)cnc12	39.5	24.3	1.5	17.5	4.4	–	–
–	–	–	–	–	–	–	–	–	–	COc1ccc(-c2cc(N3CCOC[C@@H]3C)c3ncc(C4CCN(S(C)(=O)=O)CC4)n3n2)cc1CO	49.6	45.1	4	21.2	12.7	–	–
–	–	–	–	–	–	–	–	–	–	C[C@H]1COCCN1c1cc(-c2cnc(N)nc2)nn2c(C3CCN(C(=O)c4cccnc4)CC3)cnc12	42.1	32	11.7	17.8	9.4	–	–
3.3	1.6	4.3	3	–	–	–	–	–	–	CN1CCN(c2ccc(NC(=O)Nc3ccc(-c4cc(N5CCOCC5)c5nccn5n4)cc3)cc2)CC1	–	–	–	–	–	4.9	7.8
11.6	4.1	9.9	–	–	–	–	–	–	–	C[C@H]1COCCN1c1cc(-c2ccc3[nH]ccc3c2)nn2c(C3CCN(C(=O)c4cccnc4)CC3)cnc12	57	75.6	58.3	96.7	34.2	10	–
2.3	10.9	6.3	2.2	–	–	–	–	–	–	O=C(Nc1ccncc1)Nc1ccc(-c2cc(N3CC4CCC(C3)O4)c3nccn3n2)cc1	–	–	–	–	–	11.7	3.4
–	–	–	–	–	–	–	–	–	–	COc1ccc(-c2cc(N3CCOC[C@@H]3C)c3ncc(C4CCN(C(=O)c5cccnc5)CC4)n3n2)cc1CO	46.8	42.1	4.3	19.6	17.8	–	–
0.22	15.7	17.7	1	–	–	–	–	–	–	O=C(Nc1ccc(-c2cc(N3CCOCC3)c3nccn3n2)cc1)Nc1cccnc1	–	–	–	–	–	20	1.4
–	–	–	–	–	–	–	–	–	–	COc1ccc(-c2cc(N3CCOC[C@@H]3C)c3ncc(C4CCN(Cc5cccnc5)CC4)n3n2)cc1CO	65	37.9	11.7	15.2	50.3	–	–
1.9	> 40	> 40	> 40	Insoluble	–	–	–	–	–	CCc1cnc2c(N3CCOCC3)cc(-c3ccc(NC(=O)Nc4cccnc4)cc3)nn12	–	–	–	–	–	> 40	> 40
7.1	8	13.5	–	–	–	–	–	–	–	c1cncc(CN2CCC(c3cnc4c(N5CCOCC5)cc(-c5ccc6[nH]ccc6c5)nn34)CC2)c1	96.5	94.6	84.2	95.8	68.6	5.1	–
–	–	–	–	–	–	–	–	–	–	COC(=O)N1CCC(c2cnc3c(N4CCOC[C@@H]4C)cc(-c4ccc5[nH]ccc5c4)nn23)CC1	16	43.2	26.4	33.8	56	–	–
5.9	4.1	4.7	2.8	Insoluble	–	–	–	–	–	CCc1cnc2c(N3CCOC[C@@H]3C)cc(-c3ccc(NC(=O)Nc4ccncc4)cc3)nn12	–	–	–	–	–	5.1	7.5
1.1	4.7	37.9	0.65	–	–	–	–	–	–	O=C(Nc1ccc(-c2cc(N3CC4CCC(C3)O4)c3nccn3n2)cc1)Nc1cccnc1	–	–	–	–	–	5.8	9
2.7	7.7	5.7	4.2	–	–	–	–	–	–	COc1ccc(NC(=O)Nc2ccc(-c3cc(N4CCOC[C@@H]4C)c4nccn4n3)cc2)cc1	–	–	–	–	–	7.9	10.5
5	6.4	16.3	6.8	Insoluble	–	–	–	–	–	Cc1cnc2c(N3CCOCC3)cc(-c3ccc(NC(=O)Nc4cccnc4)cc3)nn12	–	–	–	–	–	12.9	11.5

IC50 (A549 [5]) [µM]	IC50 (A-375 [6]) [µM]	IC50 (MCF7 [7]) [µM]	IC50 (NCI-H460) [µM]	solubility [9]	inhibition [10] [%]	inhibition [11] [%]	inhibition [12] [%]	inhibition [13] [%]	IC50 [14] [µM]	Structure (SMILES)	inhibition of growth at 20 µM (A549 [1]) [%]	inhibition of growth at 20 µM (MCF7 [2]) [%]	inhibition of growth at 20 µM [3] [%]	inhibition of growth at 20 µM (A-375 [4]) [%]	inhibition of growth at 20 µM (HeLa) [%]	IC50 [8] [µM]	IC50 (HEK293) [µM]
7.7	3.4	6.3	–	–	–	–	–	–	–	C[C@H]1COCCN1c1cc(-c2ccc3[nH]ccc3c2)nn2c(C3CCN(Cc4cccnc4)CC3)cnc12	84	96.5	84.4	96.7	73.6	7.9	–
0.05	0.12	0.14	0.01	–	70	12	29	59	5.58	COc1ccc(-c2ccc3c(N4CCOC[C@@H]4C)nc(N4CCOC[C@@H]4C)nc3n2)cc1CO [AZD-8055]	–	–	–	–	–	0.19	1.4
–	–	–	–	–	101	99	98	96	–	Oc1cccc(-c2nc(N3CCOCC3)c3oc4ncccc4c3n2)c1	–	–	–	–	–	–	–
–	–	–	–	–	–	–	–	–	–	OCc1cccc(-c2cc(N3CCOCC3)c3ncc(C4CCN(Cc5cccnc5)CC4)n3n2)c1	30.2	46.2	7.8	12.5	19.4	–	–
2.1	2.3	> 40	> 40	Insoluble	–	–	–	–	–	Cc1cnc2c(N3CCOC[C@@H]3C)cc(-c3ccc(NC(=O)Nc4ccncc4)cc3)nn12	–	–	–	–	–	> 40	> 40
3.1	1.8	2.9	2.9	–	–	–	–	–	–	CN1CCN(c2ccc(NC(=O)Nc3ccc(-c4cc(N5CC6CCC(C5)O6)c5nccn5n4)cc3)cc2)CC1	–	–	–	–	–	4.3	12.1
1.5	2	3.5	2	–	–	–	–	–	–	C[C@H]1COCCN1c1cc(-c2ccc(NC(=O)Nc3ccc(N4CCN(C)CC4)cc3)cc2)nn2ccnc12	–	–	–	–	–	2.6	8.4
–	–	–	–	–	–	–	–	–	–	C[C@H]1COCCN1c1cc(-c2cccc(CO)c2)nn2c(C3CCN(S(C)(=O)=O)CC3)cnc12	48.1	36.1	4.5	11.6	-2.3	–	–
1.2	3.3	7.8	7.3	Insoluble	–	–	–	–	–	Cc1cnc2c(N3CCOC[C@@H]3C)cc(-c3ccc(NC(=O)Nc4cccnc4)cc3)nn12	–	–	–	–	–	10.8	8.2
–	–	–	–	–	–	–	–	–	–	C[C@H]1COCCN1c1cc(-c2cnc(N)nc2)nn2c(C3CCN(Cc4cccnc4)CC3)cnc12	44.8	34.2	10.8	14.7	30.5	–	–
–	–	–	–	–	–	–	–	–	–	COC(=O)N1CCC(c2cnc3c(N4CCOC[C@@H]4C)cc(-c4cccc(CO)c4)nn23)CC1	40.4	34.6	-5.2	16.3	0.2	–	–
2.8	7.2	21.9	20.7	–	–	–	–	–	–	O=C(Nc1ccncc1)Nc1ccc(-c2cc(N3CCOCC3)c3nccn3n2)cc1	–	–	–	–	–	11.1	12.4
5.3	4.2	6.6	3.7	Insoluble	–	–	–	–	–	CCc1cnc2c(N3CCOC[C@@H]3C)cc(-c3ccc(NC(=O)Nc4cccnc4)cc3)nn12	–	–	–	–	–	8.4	7.3
> 40	> 40	> 40	> 40	Insoluble	–	–	–	–	–	Cc1cnc2c(N3CCOCC3)cc(-c3ccc(NC(=O)Nc4ccncc4)cc3)nn12	–	–	–	–	–	> 40	> 40
–	–	–	–	–	–	–	–	–	–	C[C@H]1COCCN1c1cc(-c2ccc3[nH]ccc3c2)nn2c(C3CCN(S(C)(=O)=O)CC3)cnc12	34	55.3	45.4	29.4	47.4	–	–
